Laboratory results: ChEMBL document CHEMBL1201862, “PubChem BioAssay data set” (2004)
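Method: 48-hour compound exposure of cells in 96-well plates, five concentrations, linear interpolation of endpoints. GI50 is the concentration that inhibits growth by half.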 The source made the active and inactive calls. No stated cut-off is given here; in the data, active = GI50 up to about 1.1 µM and inactive = higher.

How the values were obtained:
Experiment in all cases: growth of human tumour cells (NCI), 48 h
NCI-H23 = test system: NCI-H23
SW-620 = test system: SW-620
MDA-MB-435 = test system: MDA-MB-435
SK-MEL-2 = test system: SK-MEL-2
HL-60 = test system: HL-60
HT-29 = test system: HT-29
HOP-62 = test system: HOP-62
A549 = test system: A549
NCI/ADR-RES = test system: NCI/ADR-RES
OVCAR-3 = test system: OVCAR-3
COLO 205 = test system: COLO 205
UACC-257 = test system: UACC-257
TK-10 = test system: TK-10
EKVX = test system: EKVX
SK-MEL-5 = test system: SK-MEL-5
OVCAR-5 = test system: OVCAR-5
U-251 = test system: U-251
SK-MEL-28 = test system: SK-MEL-28
786-0 = test system: 786-0
NCI-H460 = test system: NCI-H460
M14 = test system: M14
SF-539 = test system: SF-539
NCI-H522 = test system: NCI-H522
IGROV-1 = test system: IGROV-1
OVCAR-4 = test system: OVCAR-4
SN12C = test system: SN12C
OVCAR-8 = test system: OVCAR-8
SF-295 = test system: SF-295
A498 = test system: A498
UO-31 = test system: UO-31
MCF7 = test system: MCF7
HCT-15 = test system: HCT-15
MOLT-4 = test system: MOLT-4
CCRF-CEM = test system: CCRF-CEM
CAKI-1 = test system: CAKI-1
SNB-19 = test system: SNB-19
ACHN = test system: ACHN
T47D = test system: T47D
RXF 393 = test system: RXF 393
LOX IMVI = test system: LOX IMVI
K562 = test system: K562
DU-145 = test system: DU-145
HOP-92 = test system: HOP-92
BT-549 = test system: BT-549
SF-268 = test system: SF-268
Hs-578T = test system: Hs-578T
HCT-116 = test system: HCT-116
PC-3 = test system: PC-3
SK-OV-3 = test system: SK-OV-3
SNB-75 = test system: SNB-75
HCC 2998 = test system: HCC 2998
Malme-3M = test system: Malme-3M
UACC-62 = test system: UACC-62
SR = test system: SR
KM12 = test system: KM12
MDA-MB-231 = test system: MDA-MB-231
NCI-H226 = test system: NCI-H226
RPMI-8226 = test system: RPMI-8226

For Cc1ccc(-c2n[nH]c(CC#N)n2)cc1, the GI50 (NCI-H23) was > 100 µM (inactive), the GI50 (SW-620) was > 100 µM (inactive) and the GI50 (MDA-MB-435) was > 100 µM (inactive). The GI50 (SK-MEL-2) was > 100 µM (inactive), the GI50 (HL-60) was > 100 µM (inactive) and the GI50 (HT-29) was > 100 µM (inactive). The GI50 (HOP-62) was > 100 µM (inactive), the GI50 (A549) was > 100 µM (inactive) and the GI50 (NCI/ADR-RES) was > 100 µM (inactive). The GI50 (OVCAR-3) was > 100 µM (inactive), the GI50 (COLO 205) was > 100 µM (inactive) and the GI50 (UACC-257) was > 100 µM (inactive). The GI50 (TK-10) was > 100 µM (inactive), the GI50 (EKVX) was 8.57 µM (inactive) and the GI50 (SK-MEL-5) was > 100 µM (inactive). For the same molecule, the GI50 (OVCAR-5) was > 100 µM (inactive), the GI50 (U-251) was > 100 µM (inactive) and the GI50 (SK-MEL-28) was > 100 µM (inactive). The GI50 (786-0) was > 100 µM (inactive), the GI50 (NCI-H460) was > 100 µM (inactive) and the GI50 (M14) was > 100 µM (inactive). For the same molecule, the GI50 (SF-539) was > 100 µM (inactive), the GI50 (NCI-H522) was > 100 µM (inactive) and the GI50 (IGROV-1) was > 100 µM (inactive). The GI50 (OVCAR-4) was > 100 µM (inactive), the GI50 (SN12C) was > 100 µM (inactive) and the GI50 (OVCAR-8) was > 100 µM (inactive). The GI50 (SF-295) was > 100 µM (inactive), the GI50 (A498) was > 100 µM (inactive) and the GI50 (UO-31) was > 100 µM (inactive). The GI50 (MCF7) was > 100 µM (inactive), the GI50 (HCT-15) was 66.1 µM and the GI50 (MOLT-4) was > 100 µM (inactive). For the same molecule, the GI50 (CCRF-CEM) was > 100 µM (inactive), the GI50 (CAKI-1) was > 100 µM (inactive) and the GI50 (SNB-19) was 0.608 µM (active). For the same molecule, the GI50 (ACHN) was > 100 µM (inactive), the GI50 (T47D) was > 100 µM (inactive) and the GI50 (RXF 393) was > 100 µM (inactive). The GI50 (LOX IMVI) was > 100 µM (inactive), the GI50 (K562) was > 100 µM (inactive) and the GI50 (DU-145) was > 100 µM (inactive). For the same molecule, the GI50 (HOP-92) was > 100 µM (inactive), the GI50 (BT-549) was > 100 µM (inactive) and the GI50 (SF-268) was > 100 µM (inactive). For the same molecule, the GI50 (Hs-578T) was 39.7 µM (inactive), the GI50 (HCT-116) was > 100 µM (inactive) and the GI50 (PC-3) was > 100 µM (inactive). The GI50 (SK-OV-3) was > 100 µM (inactive), the GI50 (SNB-75) was > 100 µM (inactive) and the GI50 (HCC 2998) was > 100 µM (inactive). For the same molecule, the GI50 (Malme-3M) was > 100 µM (inactive), the GI50 (UACC-62) was > 100 µM (inactive) and the GI50 (SR) was > 100 µM (inactive). The GI50 (KM12) was > 100 µM (inactive).
In the case of CC1CNC(NS(=O)(=O)c2cc(C(=O)Nc3ccc(F)cc3)c(Cl)cc2S)=NN1 (stereo not drawn), the GI50 (NCI-H23) is reported as 50.4 µM (inactive), the GI50 (SW-620) is reported as 45.3 µM (inactive) and the GI50 (MDA-MB-435) is reported as 35.7 µM (inactive). The GI50 (SK-MEL-2) was 28.3 µM (inactive), the GI50 (HL-60) was > 100 µM (inactive) and the GI50 (HT-29) was 51.4 µM (inactive). For the same molecule, the GI50 (HOP-62) was 75.7 µM (inactive), the GI50 (A549) was 49.4 µM (inactive) and the GI50 (NCI/ADR-RES) was > 100 µM (inactive). The GI50 (OVCAR-3) was 92.9 µM (inactive), the GI50 (COLO 205) was 62.4 µM (inactive) and the GI50 (MDA-MB-231) was 82.2 µM (inactive). The GI50 (UACC-257) was > 100 µM (inactive), the GI50 (TK-10) was > 100 µM (inactive) and the GI50 (NCI-H226) was 36.4 µM (inactive). For the same molecule, the GI50 (EKVX) was > 100 µM (inactive), the GI50 (SK-MEL-5) was 26.2 µM (inactive) and the GI50 (OVCAR-5) was 59.7 µM (inactive). The GI50 (U-251) was 48.4 µM (inactive), the GI50 (SK-MEL-28) was 56.2 µM (inactive) and the GI50 (786-0) was > 100 µM (inactive). The GI50 (NCI-H460) was 78.5 µM (inactive), the GI50 (M14) was 42.3 µM (inactive) and the GI50 (SF-539) was 39.5 µM (inactive). For the same molecule, the GI50 (NCI-H522) was 33.3 µM (inactive), the GI50 (IGROV-1) was 71 µM (inactive) and the GI50 (OVCAR-4) was > 100 µM (inactive). For the same molecule, the GI50 (SN12C) was > 100 µM (inactive), the GI50 (OVCAR-8) was 73.8 µM (inactive) and the GI50 (SF-295) was 66.5 µM (inactive). For the same molecule, the GI50 (A498) was 17.2 µM (inactive), the GI50 (RPMI-8226) was 34.9 µM (inactive) and the GI50 (UO-31) was > 100 µM (inactive). The GI50 (MCF7) was 41 µM (inactive), the GI50 (HCT-15) was 37.8 µM and the GI50 (MOLT-4) was 59.3 µM (inactive). The GI50 (CCRF-CEM) was 42.5 µM (inactive), the GI50 (CAKI-1) was > 100 µM (inactive) and the GI50 (SNB-19) was 87.1 µM (inactive). The GI50 (ACHN) was 77.4 µM (inactive), the GI50 (LOX IMVI) was 54.5 µM (inactive) and the GI50 (K562) was 32.8 µM (inactive). The GI50 (DU-145) was > 100 µM (inactive), the GI50 (BT-549) was > 100 µM (inactive) and the GI50 (SF-268) was 50.4 µM (inactive). The GI50 (HCT-116) was 37.7 µM (inactive), the GI50 (PC-3) was 30.3 µM (inactive) and the GI50 (SK-OV-3) was > 100 µM (inactive). For the same molecule, the GI50 (HCC 2998) was 40.5 µM (inactive), the GI50 (Malme-3M) was 29.1 µM (inactive) and the GI50 (UACC-62) was 57.3 µM (inactive). For the same molecule, the GI50 (SR) was 43.5 µM (inactive) and the GI50 (KM12) was 49.3 µM (inactive).
